One experiment relates to DOHH2 cells. Briefly: CellTiter-Glo cell proliferation assay, DOHH2 cells. Format: cell-based. Conditions: Homo sapiens, DOHH-2, 72 hours. The method in brief:
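GI50 derived from CellTiter-Glo luminescent viability signal. Cells grown in DMEM with 10% FBS received a compound dilution series for 72 h (37 °C, 5% CO2).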

A further experiment has as its target T1, BCL-2 (Homo sapiens, UniProt P10415).
T1 construct: purchased Cisbio 63ADK000CB01PEG
Briefly: HTRF BCL-2/BAK assay (Cisbio). It is filed as binding. The conditions noted are these: recombinant human Tag1-BCL-2 2 nM, Tag2-BAK 10 nM. The method, then:
(§1) Then the pre-mixed anti-Tag1-Eu^3+ and anti-tag2-XL665 were added to the plate and further incubated at room temperature for another 2 hours. The signals ([…]) were read on Envision 2104 instrument. The IC50 for each compound was derived from fitting the signal of 665/615 nM to the increasing compound concentration.
(§2) Using the above assays, the following compounds were tested.

The next experiment concerns the target T2, BCL-XL (Homo sapiens, UniProt Q07817).
T2 construct: purchased Cisbio 63ADK000CB04PEG
Briefly: HTRF BCL-XL/BAK assay (Cisbio). It is filed as binding. The conditions noted are these: recombinant human Tag1-BCL-XL 2 nM, Tag2-BAK 5 nM. The method, then:
as §1, §2

T2 sequence (Q07817 whole entry): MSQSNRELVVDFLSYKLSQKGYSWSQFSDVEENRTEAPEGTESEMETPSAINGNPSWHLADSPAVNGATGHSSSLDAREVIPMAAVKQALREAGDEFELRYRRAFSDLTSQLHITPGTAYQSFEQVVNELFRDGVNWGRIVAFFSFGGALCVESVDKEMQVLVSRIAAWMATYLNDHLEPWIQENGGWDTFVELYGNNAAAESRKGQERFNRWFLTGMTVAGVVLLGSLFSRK
T1 sequence (P10415 whole entry): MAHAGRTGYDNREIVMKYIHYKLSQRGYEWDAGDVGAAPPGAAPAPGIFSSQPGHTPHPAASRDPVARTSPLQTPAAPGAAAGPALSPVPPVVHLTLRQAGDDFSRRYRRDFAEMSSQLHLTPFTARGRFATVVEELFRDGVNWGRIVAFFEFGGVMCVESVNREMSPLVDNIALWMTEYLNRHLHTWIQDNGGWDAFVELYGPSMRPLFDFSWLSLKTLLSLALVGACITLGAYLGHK

Turning to `O=C(NS(=O)(=O)c1ccc(NC[C@H]2CO[C@H]3OCC[C@@H]23)c([N+](=O)[O-])c1)c1ccc(N2CCN([C@@H]3CCCCc4c(Br)cc(F)cc43)CC2)cc1Oc1cnc2[nH]ccc2c1` (relative stereo) [Compound 82, 2-((1H-pyrrolo[2,3-b]pyridin-5-yl)oxy)-4-(4-((R)-1-bromo-3-fluoro-6,7,8,9-tetrahydro-5H-benzo[7]annulen-5-yl)piperazin-1-yl)-N-((4-((((3S,3aS,6aR)-hexahydrofuro[2,3-b]furan-3-yl)methyl)amino)-3-nitrophenyl)sulfonyl)benzamide], the GI50 with DOHH2 cells was in the range of 500 to 5000 nM. For the same compound, the values for the IC50 at BCL-2 and on BCL-XL were less than 20 nM and 200 to 2000 nM, respectively.
Taken in the same sequence, the figures for `O=C(NS(=O)(=O)c1ccc(NCC2CC3(COC3)C2)c([N+](=O)[O-])c1)c1ccc(N2CCN([C@@H]3CCCCc4c(Br)cccc43)CC2)cc1Oc1cnc2[nH]ccc2c1` [Compound 77, (R)-2-((1H-pyrrolo[2,3-b]pyridin-5-yl)oxy)-N-((4-(((2-oxaspiro[3.3]heptan-6-yl)methyl)amino)-3-nitrophenyl)sulfonyl)-4-(4-(1-bromo-6,7,8,9-tetrahydro-5H-benzo[7]annulen-5-yl)piperazin-1-yl)benzamide] were less than 50 nM, less than 20 nM and 20 to 200 nM.
The compound `O=C(NS(=O)(=O)c1ccc(NCC2CCC3(CC2)COC3)c([N+](=O)[O-])c1)c1ccc(N2CCN([C@@H]3CCCCc4c(Cl)cccc43)CC2)cc1Oc1cnc2[nH]ccc2c1` [Compound 71, (R)-2-((1H-pyrrolo[2,3-b]pyridin-5-yl)oxy)-N-((4-(((2-oxaspiro[3.5]nonan-7-yl)methyl)amino)-3-nitrophenyl)sulfonyl)-4-(4-(1-chloro-6,7,8,9-tetrahydro-5H-benzo[7]annulen-5-yl)piperazin-1-yl)benzamide] returned a GI50 in the experiment with DOHH2 cells of less than 50 nM. In addition, the figures for the IC50 on BCL-2 and on BCL-XL were less than 20 nM and 20 to 200 nM, respectively.
For the compound `CC1(C)CC(CNc2ccc(S(=O)(=O)NC(=O)c3ccc(N4CCN([C@@H]5CCCCc6c(Cl)cccc65)CC4)cc3Oc3cnc4[nH]ccc4c3)cc2[N+](=O)[O-])CCO1` (stereo partly drawn) [Compound 102, 2-((1H-pyrrolo[2,3-b]pyridin-5-yl)oxy)-4-(4-((R)-1-chloro-6,7,8,9-tetrahydro-5H-benzo[7]annulen-5-yl)piperazin-1-yl)-N-((4-(((2,2-dimethyltetrahydro-2H-pyran-4-yl)methyl)amino)-3-nitrophenyl)sulfonyl)benzamide], the GI50 in the experiment with DOHH2 cells is less than 50 nM. The IC50 at BCL-2 was less than 20 nM; on BCL-XL, 20 to 200 nM.
Compound `O=C(NS(=O)(=O)c1ccc(NCC2CCOCC2)c([N+](=O)[O-])c1)c1ccc(N2CCN([C@@H]3CCCCc4c(Br)cc(F)cc43)CC2)cc1Oc1cnc2[nH]ccc2c1` [Compound 78, (R)-2-((1H-pyrrolo[2,3-b]pyridin-5-yl)oxy)-4-(4-(1-bromo-3-fluoro-6,7,8,9-tetrahydro-5H-benzo[7]annulen-5-yl)piperazin-1-yl)-N-((3-nitro-4-(((tetrahydro-2H-pyran-4-yl)methyl)amino)phenyl)sulfonyl)benzamide] gave a GI50 in the experiment with DOHH2 cells of 50 to 500 nM. The IC50 is less than 20 nM at BCL-2 and 200 to 2000 nM on BCL-XL.
In the case of `O=C(NS(=O)(=O)c1ccc(NCC2CCOCC2)c([N+](=O)[O-])c1)c1ccc(N2CCN(C3CCCCc4c(-c5ccccc5)cccc43)CC2)cc1Oc1cnc2[nH]ccc2c1` (stereo not drawn) [Compound 19, 2-((1H-pyrrolo[2,3-b]pyridin-5-yl)oxy)-N-((3-nitro-4-(((tetrahydro-2H-pyran-4-yl)methyl)amino)phenyl)sulfonyl)-4-(4-(1-phenyl-6,7,8,9-tetrahydro-5H-benzo[7]annulen-5-yl)piperazin-1-yl)benzamide], the GI50 with DOHH2 cells was in the range of 500 to 5000 nM. Also, the IC50 was less than 20 nM on BCL-2 and more than 2000 nM at BCL-XL.
In the experiment on DOHH2 cells, `CC(C)[C@H](N)C(=O)N1CCC2(CC1)CC(CNc1ccc(S(=O)(=O)NC(=O)c3ccc(N4CCN([C@@H]5CCCCc6c(Cl)cccc65)CC4)cc3Oc3cnc4[nH]ccc4c3)cc1[N+](=O)[O-])C2` [Compound 125, 2-((1H-pyrrolo[2,3-b]pyridin-5-yl)oxy)-N-((4-(((7-(L-valyl)-7-azaspiro[3.5]nonan-2-yl)methyl)amino)-3-nitrophenyl)sulfonyl)-4-(4-((R)-1-chloro-6,7,8,9-tetrahydro-5H-benzo[7]annulen-5-yl)piperazin-1-yl)benzamide] registered a GI50 of less than 50 nM. For the same compound, the IC50 at BCL-2 and at BCL-XL was less than 20 nM in each case.
Turning to `O=C(NS(=O)(=O)c1ccc(NCCN2CCN(C3COC3)CC2)c([N+](=O)[O-])c1)c1ccc(N2CCN([C@@H]3CCCCc4c(Cl)cccc43)CC2)cc1Oc1cnc2[nH]ccc2c1` [Compound 84, (R)-2-((1H-pyrrolo[2,3-b]pyridin-5-yl)oxy)-4-(4-(1-chloro-6,7,8,9-tetrahydro-5H-benzo[7]annulen-5-yl)piperazin-1-yl)-N-((3-nitro-4-((2-(4-(oxetan-3-yl)piperazin-1-yl)ethyl)amino)phenyl)sulfonyl)benzamide], the GI50 in the experiment with DOHH2 cells is less than 50 nM. Further, the IC50 is less than 20 nM at BCL-2 and 20 to 200 nM on BCL-XL.
On to `O=C(NS(=O)(=O)c1ccc(NCCN2CC3CC2CO3)c([N+](=O)[O-])c1)c1ccc(N2CCN(C3CCCCc4c(Cl)cccc43)CC2)cc1Oc1cnc2[nH]ccc2c1` (stereo not drawn) [Compound 41, 2-((1H-pyrrolo[2,3-b]pyridin-5-yl)oxy)-N-((4-((2-(2-oxa-5-azabicyclo[2.2.1]heptan-5-yl)ethyl)amino)-3-nitrophenyl)sulfonyl)-4-(4-(1-chloro-6,7,8,9-tetrahydro-5H-benzo[7]annulen-5-yl)piperazin-1-yl)benzamide], for which, in the experiment on DOHH2 cells, the GI50 lay within 50 to 500 nM. In addition, the IC50 at BCL-2 and at BCL-XL was less than 20 nM each time.
As for `O=C(NS(=O)(=O)c1ccc(NCCN2CCC3(CC2)COC3)c([N+](=O)[O-])c1)c1ccc(N2CCN([C@@H]3CCCCc4c(Br)cccc43)CC2)cc1Oc1cnc2[nH]ccc2c1` [Compound 68, (R)-2-((1H-pyrrolo[2,3-b]pyridin-5-yl)oxy)-N-((4-((2-(2-oxa-7-azaspiro[3.5]nonan-7-yl)ethyl)amino)-3-nitrophenyl)sulfonyl)-4-(4-(1-bromo-6,7,8,9-tetrahydro-5H-benzo[7]annulen-5-yl)piperazin-1-yl)benzamide], the GI50 in the experiment with DOHH2 cells is less than 50 nM. Further, the IC50 on BCL-2 and on BCL-XL was less than 20 nM throughout.
Consider `CC(CO)c1cccc2c1CCCCC2N1CCN(c2ccc(C(=O)NS(=O)(=O)c3ccc(NCC4CCOCC4)c([N+](=O)[O-])c3)c(Oc3cnc4[nH]ccc4c3)c2)CC1` (stereo not drawn) [Compound 61, 2-((1H-pyrrolo[2,3-b]pyridin-5-yl)oxy)-4-(4-(1-(1-hydroxypropan-2-yl)-6,7,8,9-tetrahydro-5H-benzo[7]annulen-5-yl)piperazin-1-yl)-N-((3-nitro-4-(((tetrahydro-2H-pyran-4-yl)methyl)amino)phenyl)sulfonyl)benzamide], for which the GI50 with DOHH2 cells lay in the range of 500 to 5000 nM. Besides, the figures for the IC50 at BCL-2 and on BCL-XL were less than 20 nM and 200 to 2000 nM, respectively.
`CN1CCC(CNc2ccc(S(=O)(=O)NC(=O)c3ccc(N4CCN([C@@H]5CCCCc6c(Cl)cc(F)cc65)CC4)cc3Oc3cnc4[nH]ccc4c3)cc2[N+](=O)[O-])CC1` [Compound 86, (R)-2-((1H-pyrrolo[2,3-b]pyridin-5-yl)oxy)-4-(4-(1-chloro-3-fluoro-6,7,8,9-tetrahydro-5H-benzo[7]annulen-5-yl)piperazin-1-yl)-N-((4-(((1-methylpiperidin-4-yl)methyl)amino)-3-nitrophenyl)sulfonyl)benzamide] returned a GI50 in the experiment with DOHH2 cells of less than 50 nM. In addition, the IC50 at BCL-2 and at BCL-XL was less than 20 nM throughout.
As to `O=C(NS(=O)(=O)c1ccc(NCC2(O)CCN(C3COC3)CC2)c([N+](=O)[O-])c1)c1ccc(N2CCN([C@@H]3CCCCc4c(Cl)cccc43)CC2)cc1Oc1cnc2[nH]ccc2c1` [Compound 85, (R)-2-((1H-pyrrolo[2,3-b]pyridin-5-yl)oxy)-4-(4-(1-chloro-6,7,8,9-tetrahydro-5H-benzo[7]annulen-5-yl)piperazin-1-yl)-N-((4-(((4-hydroxy-1-(oxetan-3-yl)piperidin-4-yl)methyl)amino)-3-nitrophenyl)sulfonyl)benzamide], in the experiment on DOHH2 cells, the GI50 was less than 50 nM. Also, the concentration for half-maximal inhibition (IC50) on BCL-2 and at BCL-XL was less than 20 nM throughout.
In the experiment on DOHH2 cells, `CP(C)(=O)c1cccc2c1CCCCC2N1CCN(c2ccc(C(=O)NS(=O)(=O)c3ccc(NCC4CCOCC4)c([N+](=O)[O-])c3)c(Oc3cnc4[nH]ccc4c3)c2)CC1` (stereo not drawn) [Compound 63, 2-((1H-pyrrolo[2,3-b]pyridin-5-yl)oxy)-4-(4-(1-(dimethylphosphoryl)-6,7,8,9-tetrahydro-5H-benzo[7]annulen-5-yl)piperazin-1-yl)-N-((3-nitro-4-(((tetrahydro-2H-pyran-4-yl)methyl)amino)phenyl)sulfonyl)benzamide] showed a concentration for 50% growth inhibition (GI50) of more than 5000 nM. Besides, the IC50 on BCL-2 is 20 to 200 nM; on BCL-XL it was more than 2000 nM.
`O=C(NS(=O)(=O)c1ccc(NCC2CCOCC2)c([N+](=O)[O-])c1)c1ccc(N2CCN(C3CCCCc4c(Br)cccc43)CC2)cc1Oc1cnc2[nH]ccc2c1` (stereo not drawn) [Compound 18, 2-((1H-pyrrolo[2,3-b]pyridin-5-yl)oxy)-4-(4-(1-bromo-6,7,8,9-tetrahydro-5H-benzo[7]annulen-5-yl)piperazin-1-yl)-N-((3-nitro-4-(((tetrahydro-2H-pyran-4-yl)methyl)amino)phenyl)sulfonyl)benzamide] returned a GI50 in the experiment on DOHH2 cells of less than 50 nM. Also, the IC50 on BCL-2 is less than 20 nM; at BCL-XL, 20 to 200 nM.

(Values after US20240239792A1, “MODULATORS OF BCL-2 OR BCL-2/BCL-XL AND USES THEREOF” (APPICINE THERAPEUTICS (HK) LIMITED, priority 2021, published 2024).)
